Assay results from PubChem BioAssay (NCI).
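Each compound was tested at five concentrations against cells in 96-well plates for 48 hours. GI50 is the concentration that inhibits growth by half. The concentration for full growth arrest is given as TGI.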 *1 amine or outer side, *2 acyl side, *3 side chain or, on linkers, in order; H or OH if unused. Where a SMILES comes first, the peptide text is derived from it. [ ]: non-standard residue; d: D form. The star is where a group is joined. X41 = CCC(=O)CC1CC(C)CC(C(=O)[*:2])N1[*:1]; X40 = CCCCCCCCC(C)C(=O)*; Aib = CC(C)(N)C(=O)O; X42 = CC(CN(C)CCO)N*

Assays:
Test in all cases: inhibition of tumour cell growth, NCI panel, 48 h; in the data active = GI50 below about 0.43 µM; inactive = the rest
HOP-92 NSCLC = system: HOP-92 NSCLC
NCI-H23 lung = system: NCI-H23 lung
BT-549 breast = system: BT-549 breast
UACC-257 melanoma = system: UACC-257 melanoma
NCI-H226 lung = system: NCI-H226 lung
U251 CNS = system: U251 CNS
SK-MEL-2 melanoma = system: SK-MEL-2 melanoma
COLO 205 colon = system: COLO 205 colon
ACHN renal = system: ACHN renal
HL-60(TB) leukemia = system: HL-60(TB) leukemia
A549 NSCLC = system: A549 NSCLC
M14 melanoma = system: M14 melanoma
HCC-2998 colon = system: HCC-2998 colon
OVCAR-8 ovarian = system: OVCAR-8 ovarian
NCI-H460 lung = system: NCI-H460 lung
SF-295 CNS = system: SF-295 CNS
SK-MEL-5 melanoma = system: SK-MEL-5 melanoma
EKVX NSCLC = system: EKVX NSCLC
SF-539 CNS = system: SF-539 CNS
K-562 leukemia = system: K-562 leukemia
HT29 colon = system: HT29 colon
HOP-62 NSCLC = system: HOP-62 NSCLC
MDA-MB-435 = system: MDA-MB-435
SK-MEL-28 melanoma = system: SK-MEL-28 melanoma
786-0 renal = system: 786-0 renal
SF-268 CNS = system: SF-268 CNS
OVCAR-3 ovarian = system: OVCAR-3 ovarian
UACC-62 melanoma = system: UACC-62 melanoma
MOLT-4 leukemia = system: MOLT-4 leukemia
HS 578T breast = system: HS 578T breast
OVCAR-5 ovarian = system: OVCAR-5 ovarian
A498 renal = system: A498 renal
CCRF-CEM leukemia = system: CCRF-CEM leukemia
PC-3 prostate = system: PC-3 prostate
DU-145 prostate = system: DU-145 prostate
KM12 colon = system: KM12 colon
OVCAR-4 ovarian = system: OVCAR-4 ovarian
SNB-75 CNS = system: SNB-75 CNS
HCT-15 colon = system: HCT-15 colon
MCF7 breast = system: MCF7 breast
IGROV1 ovarian = system: IGROV1 ovarian
SW-620 colon = system: SW-620 colon
SN12C renal = system: SN12C renal
HCT-116 colon = system: HCT-116 colon
TK-10 renal = system: TK-10 renal
RXF 393 renal = system: RXF 393 renal
SK-OV-3 ovarian = system: SK-OV-3 ovarian
NCI-H522 lung = system: NCI-H522 lung
RPMI-8226 leukemia = system: RPMI-8226 leukemia
MALME-3M melanoma = system: MALME-3M melanoma
CAKI-1 renal = system: CAKI-1 renal
LOX IMVI melanoma = system: LOX IMVI melanoma
NCI/ADR-RES ovarian = system: NCI/ADR-RES ovarian

CCCCCCCCC(C)C(=O)N1CCCC1C(=O)N1C(CC(=O)CC)CC(C)CC1C(=O)NC(C)C(=O)NC(C)(C)C(=O)NC(C)(C)C(=O)NC(C(=O)NC(C)C(=O)NC(C)(C)C(=O)NC(C)(C)C(=O)NC(C)CN(C)CCO)C(C)CC (stereo unspecified) (X40-P[X41]A[Aib][Aib]IA[Aib][Aib]-X42; configuration not given here)
43.5 nM: TGI (HOP-92 NSCLC)
2500 nM: TGI (UACC-257 melanoma)
6.63 µM: TGI (BT-549 breast)
1220 nM: TGI (NCI-H226 lung)
1050 nM: TGI (NCI-H23 lung)

CCCC[C@@H](COC(=O)N(Cc1cccs1)Cc1cccs1)NC(=O)N[C@@H](CC(=O)OC)c1ccc2c(c1)OCO2
inactive: GI50 (U251 CNS) > 100 µM | GI50 (HOP-92 NSCLC) > 100 µM | GI50 (SK-MEL-2 melanoma) > 100 µM | GI50 (COLO 205 colon) > 100 µM | GI50 (ACHN renal) > 100 µM | GI50 (NCI-H23 lung) > 100 µM | GI50 (BT-549 breast) > 100 µM | GI50 (HL-60(TB) leukemia) > 100 µM | GI50 (A549 NSCLC) 67.7 µM | GI50 (M14 melanoma) > 100 µM | GI50 (HCC-2998 colon) > 100 µM | GI50 (OVCAR-8 ovarian) > 100 µM | GI50 (NCI-H460 lung) > 100 µM | GI50 (SF-295 CNS) > 100 µM | GI50 (SK-MEL-5 melanoma) > 100 µM | GI50 (EKVX NSCLC) > 100 µM | GI50 (SF-539 CNS) > 100 µM | GI50 (K-562 leukemia) 59.6 µM | GI50 (HT29 colon) > 100 µM | GI50 (HOP-62 NSCLC) > 100 µM | GI50 (MDA-MB-435) > 100 µM | GI50 (SK-MEL-28 melanoma) > 100 µM | GI50 (786-0 renal) > 100 µM | GI50 (SF-268 CNS) > 100 µM | GI50 (OVCAR-3 ovarian) > 100 µM | GI50 (UACC-62 melanoma) > 100 µM | GI50 (MOLT-4 leukemia) 5.19 µM | GI50 (HS 578T breast) > 100 µM | GI50 (OVCAR-5 ovarian) > 100 µM | GI50 (A498 renal) > 100 µM | GI50 (CCRF-CEM leukemia) > 100 µM | GI50 (PC-3 prostate) 9.09 µM | GI50 (UACC-257 melanoma) > 100 µM | GI50 (DU-145 prostate) > 100 µM | GI50 (KM12 colon) > 100 µM | GI50 (OVCAR-4 ovarian) > 100 µM | GI50 (SNB-75 CNS) > 100 µM | GI50 (HCT-15 colon) > 100 µM | GI50 (MCF7 breast) > 100 µM | GI50 (IGROV1 ovarian) > 100 µM | GI50 (SW-620 colon) > 100 µM | GI50 (SN12C renal) > 100 µM | GI50 (HCT-116 colon) > 100 µM | GI50 (TK-10 renal) > 100 µM | GI50 (NCI-H226 lung) > 100 µM | GI50 (RXF 393 renal) > 100 µM | GI50 (SK-OV-3 ovarian) > 100 µM | GI50 (NCI-H522 lung) > 100 µM | GI50 (RPMI-8226 leukemia) 8.11 µM | GI50 (MALME-3M melanoma) > 100 µM | GI50 (CAKI-1 renal) > 100 µM | GI50 (LOX IMVI melanoma) > 100 µM | GI50 (NCI/ADR-RES ovarian) > 100 µM
> 100 µM: TGI (U251 CNS) | TGI (SK-MEL-2 melanoma) | TGI (COLO 205 colon) | TGI (ACHN renal) | TGI (BT-549 breast) | TGI (HL-60(TB) leukemia) | TGI (A549 NSCLC) | TGI (M14 melanoma) | TGI (HCC-2998 colon) | TGI (OVCAR-8 ovarian) | TGI (NCI-H460 lung) | TGI (SF-295 CNS) | TGI (SK-MEL-5 melanoma) | TGI (EKVX NSCLC) | TGI (SF-539 CNS) | TGI (K-562 leukemia) | TGI (HT29 colon) | TGI (HOP-62 NSCLC) | TGI (MDA-MB-435) | TGI (SK-MEL-28 melanoma) | TGI (786-0 renal) | TGI (SF-268 CNS) | TGI (OVCAR-3 ovarian) | TGI (UACC-62 melanoma) | TGI (MOLT-4 leukemia) | TGI (HS 578T breast) | TGI (OVCAR-5 ovarian) | TGI (A498 renal) | TGI (CCRF-CEM leukemia) | TGI (PC-3 prostate) | TGI (DU-145 prostate) | TGI (KM12 colon) | TGI (OVCAR-4 ovarian) | TGI (SNB-75 CNS) | TGI (HCT-15 colon) | TGI (MCF7 breast) | TGI (IGROV1 ovarian) | TGI (SW-620 colon) | TGI (SN12C renal) | TGI (HCT-116 colon) | TGI (TK-10 renal) | TGI (RXF 393 renal) | TGI (SK-OV-3 ovarian) | TGI (NCI-H522 lung) | TGI (RPMI-8226 leukemia) | TGI (MALME-3M melanoma) | TGI (CAKI-1 renal) | TGI (LOX IMVI melanoma) | TGI (NCI/ADR-RES ovarian)
> 100000 nM: TGI (HOP-92 NSCLC) | TGI (NCI-H23 lung) | TGI (UACC-257 melanoma) | TGI (NCI-H226 lung)
